30 compounds from PMC12186256, “Inhibitors of the PqsR Quorum-Sensing Receptor Reveal Differential Roles for PqsE and RhlI in Control of Phenazine Production” (ACS Chemical Biology, 2025) can be followed below.

In assay [1] the test system is pphz1-lux in WT P. aeruginosa. The experiment in a line: P. aeruginosa pphz1-lux bioluminescent reporter assay. Format: cell-based, Pseudomonas aeruginosa PA14. To be noted: for IC50: Pseudomonas aeruginosa, PA14, read-out: IC50 PA14; for IC50 values in P. aeruginosa: pphz1-lux in WT P. aeruginosa. As to the method:
Strains were struck onto LB agar and grown overnight at 37 °C. The following day, individual colonies were isolated and transferred into LB liquid medium followed by incubation at 37 °C. After overnight growth, cultures were diluted 1:1000 into M9 medium. 100 μL of these suspensions were aliquoted into wells of 96 well plates (Corning). Plates were incubated for 24 h at 37 °C in a BioSpa Automated Incubator (Agilent). Light production and OD600 were quantified from each well at either 15 or 20 min intervals (Neo2, Agilent). When noted, SPR741 (DC Chemicals) was added at the specified concentration.
One thousand small molecules from the initial screen were selected for retesting, following the identical protocol used for the screen. Of these molecules, 751 were assayed for luciferase inhibition using P. aeruginosa containing ptac-lux instead of pphz1-lux. Any compound that inhibited this reporter by at least 50% was eliminated from the pipeline. One hundred and sixty-seven compounds were further analyzed in dilution series to determine IC50 values with respect to pphz1-lux inhibition. A ten-point, 2-fold serial dilution series was made of each test compound in DMSO solvent. The highest tested concentration was 40 μM. These assays were carried out in 384 well plates (Corning) as described above using both the P. aeruginosa ptac-lux and pphz1-lux reporter strains.
In general terms: In a reporter assay the amount or activity of a reporter protein is the signal.

Another assay concerns the target T1, PqsR (Pseudomonas aeruginosa, UniProt Q9I4X0).
T1 construct: expressed in transfected cells; host or cells: Escherichia coli carrying pBAD-pqsR and pCS26-ppqsA-luxCDABE
The experiment in a line: E. coli PqsR/ppqsA-lux reporter assay. Type of assay: cell-based. The source says:
To determine the target(s) of the 49 hit compounds in P. aeruginosa, we assayed them in a set of E. coli-based reporter strains that read out exclusively RhlR, LasR, or PqsR function. The three assays work by a similar logic. In each case, the gene encoding one of the three quorum-sensing receptors is driven by an arabinose-inducible promoter. The receptor proteins, once made, are activated by exogenously supplied cognate autoinducer. The receptor–autoinducer complexes activate a target gene promoter fused to luciferase (prhlA-lux for RhlR, plasB-lux for LasR, and ppqsA-lux for PqsR). […] To further verify that PqsR is the target of our inhibitors, we assessed whether production of PQS and its precursor, HHQ, declined following treatment of WT P. aeruginosa with one test compound, A7. […] Below, we focus on these 30 compounds that we propose target PqsR. The other 19 compounds will be characterized at a later time.
As previously reported, following overnight growth in LB liquid medium at 37 °C, E. coli reporter strains were diluted 1:1000 in LB liquid medium containing 1% arabinose (PqsR) or 0.1% arabinose (LasR and RhlR). The reporter strain for PqsR activity carried pCS26-ppqsA-luxCDABE and pBAD-pqsR. The reporter strain for LasR activity carried pCS26-plasB-luxCDABE and pBAD-lasR; the reporter strain for RhlR activity carried pCS26-prhlA-luxCDABE and pBAD-rhlR. Test compounds were added at the specified concentrations. To activate PqsR, PQS was added at 100 nM. To activate LasR, 3O-C12-HSL was added at 5 nM. To activate RhlR, C4-HSL was added at 10 μM. To establish IC50 values, 10-point, […] serial dilution series were made starting at 100 μM of each compound. The mixtures were incubated at 37 °C for 24 h (BioSpa, Agilent). Bioluminescence and OD600 were assessed every 15 min (Neo2, Agilent). Readings from the 9 h time point, representing peak signal production, were used to calculate the IC50 values.

The test system of assay [2] is WT P. aeruginosa. In words: Pyocyanin inhibition assay. Type of assay: cell-based, Pseudomonas aeruginosa. To be noted: 100 μM compound. As to the method: WT P. aeruginosa and the ΔpqsE mutant were struck onto LB agar and grown overnight at 37 °C. Individual colonies were diluted into 5 mL of LB liquid medium. Aliquots were transferred into glass tubes containing test compounds with and without 8 μg/mL SPR741. WT P. aeruginosa to which DMSO had been added served as the negative control. The P. aeruginosa ΔpqsE strain to which DMSO had been added served as the positive control. Compounds were tested at 100 μM. Tubes were shaken for 18 h at 37 °C followed by centrifugation at 15,000 rpm for 5 min. Cell-free culture fluids were collected and assessed for pyocyanin by absorbance at 695 nm. Values were normalized by culture density, using absorbance at OD600. Percent inhibition of OD695/OD600 was normalized to the DMSO control.

For assay [3], the system named is WT P. aeruginosa. The experiment in a line: Real time PCR of phzH and phzS. Format: cell-based, Pseudomonas aeruginosa. Particulars: 100 μM compound, qPCR relative to DMSO. As to the method: Following overnight growth in LB at 37 °C with aeration, P. aeruginosa strains were diluted to an OD600 of 0.001 and grown to an OD600 of 3 at 37 °C with aeration. 500 μL of cells were collected by centrifugation and flash frozen. RNA was extracted using RNAeasy Plus mini columns (Qiagen). DNA was removed, followed by cDNA synthesis, using SuperScript IV VILO Master Mix with ezDNase Enzyme (Invitrogen). RNA was quantified using PerfeCTa SYBR Green FastMix Low ROX (Quanta BioSciences). Relative quantity is calculated by ΔΔCt compared to DMSO treatment and the reference gene, rpsL. Outliers with values higher or lower than twice the standard deviation of the mean were removed.
In general terms: In qPCR the cycle at which signal appears reflects the starting amount.

The test system of assay [4] is WT P. aeruginosa. In words: Quinolone (HHQ, PQS) quantitation by LCMS in culture fluids. Type of assay: cell-based, Pseudomonas aeruginosa. To be noted: WT P. aeruginosa treated with 100 μM compound; compared with ΔpqsR. As to the method: For all assays: the designated P. aeruginosa strains were grown as described above for the pyocyanin inhibition assay. Following overnight growth, culture fluids were separated from cells by centrifugation and filtration.
For quinolone quantitation: cell-free culture fluids were extracted with 2 mL of ethyl acetate that had been acidified with 0.15 mL/L glacial acetic acid. The organic layer was isolated and dried down in vacuo. Dried samples were resuspended in 50 μL of methanol and analyzed by LCMS on an Agilent 1290 Infinity II HPLC connected to an MSD iQ. The injection was 2 μL. The mobile phase was a water–MeCN gradient containing 0.1% formic acid. Chromatography was performed as follows: 2 min hold at 5% […], ramp up to 95% MeCN over 8 min hold for 2 min at 95% MeCN, return to 5% MeCN and re-equilibrate for 1 min. Data were acquired in positive mode scanning between m/z 100–1000. Source parameters for acquisition were as follows: gas temperature 325 °C, gas flow 11 (L/min), capillary voltage 3500 V. Data were processed using Agilent OpenLAB CDS. Peaks were extracted by m/z, quantified by area under the curve. Each compound was compared to a 100 ng/μL commercial standard of PQS or HHQ.

As usually defined, the IC50 is the concentration that gives 50% inhibition.

T1 sequence (Q9I4X0 whole entry): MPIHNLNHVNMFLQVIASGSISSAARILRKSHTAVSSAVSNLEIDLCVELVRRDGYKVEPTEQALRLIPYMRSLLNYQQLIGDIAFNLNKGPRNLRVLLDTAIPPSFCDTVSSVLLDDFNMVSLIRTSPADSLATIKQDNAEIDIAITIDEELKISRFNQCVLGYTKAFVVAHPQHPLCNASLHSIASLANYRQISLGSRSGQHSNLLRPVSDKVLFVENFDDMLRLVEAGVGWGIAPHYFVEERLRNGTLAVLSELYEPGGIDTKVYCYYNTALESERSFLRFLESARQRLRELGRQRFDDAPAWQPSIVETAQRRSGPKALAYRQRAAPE

Take `Cc1noc(CN2CCCC(CCC(=O)Nc3ccc(C(F)(F)F)cc3)C2)n1` (stereo not shown) [Compound C11]: the IC50 in assay [1] turned out to be 2.8 ± 0.19 µM; on PqsR, 2.94 ± 0.83 µM.

On to `N#Cc1cccc(CNCC2Cn3nnc(-c4ccccc4)c3CO2)c1` (stereo not shown) [Compound A9], for which the half-maximal inhibitory concentration (IC50) came out at 38 ± 2.4 µM in assay [1] and 3.9 ± 0.65 µM on PqsR.

Consider `CCOc1ccc(-n2nnnc2CNC(=O)Nc2cccc(Cl)c2)cc1` [Compound B8], for which the IC50 in assay [1] is 6.4 ± 1 µM; against PqsR, 2.37 ± 0.77 µM.

Consider `N#CCc1ccc(NC(=O)CNc2ccc(C(F)(F)F)cc2)cc1` [Compound D2], for which the figures for the IC50 (in assay [1]; on PqsR) were 2.3 ± 0.02 µM and 1.32 ± 0.17 µM, respectively.

With `O=C(Cn1cnc2c(oc3ccccc32)c1=O)N1CCC(Cc2ccccc2)CC1` [Compound B12], the IC50 was 10.5 ± 1.2 µM in assay [1] and 14.5 ± 1.9 µM on PqsR.

Turning to `O=S(=O)(Nc1ccc(F)cc1Cl)c1ccc(-c2cc(C(F)(F)F)n[nH]2)s1` [Compound B7], the IC50 in assay [1] came to 3.5 ± 0.36 µM; against PqsR it was 3.8 ± 0.3 µM.

In the case of `O=C(NC(C(=O)N1CCOCC1)C12CC3CC(CC(C3)C1)C2)c1ccc([N+](=O)[O-])cc1` (stereo not shown) [Compound B10], in assay [1], the IC50 turned out to be 10.5 ± 1.4 µM.

Consider `Cc1cc(Br)ccc1NC(=O)CNC(=O)c1ccc(-n2cnc3ccccc32)cc1` [Compound D1], for which the IC50 in assay [1] came to 3.9 ± 0.32 µM; at PqsR, 1.99 ± 0.88 µM. In addition, the “pyocyanin inhibition without versus with SPR741” value with WT P. aeruginosa [2] was “improved pyocyanin inhibition in the absence of SPR741 compared to in its presence”.

For the compound `N#Cc1cnc(SCC(=O)Nc2ccc(Cl)c(Br)c2)nc1N` [Compound C7], the IC50 in assay [1] amounted to 2.4 ± 0.4 µM; at PqsR it was 0.67 ± 0.08 µM.

`O=C(NCc1cccs1)C1CCN(c2ccc3nnc(-c4ccccc4F)n3n2)CC1` [Compound B13] displayed an IC50 against PqsR of 11.9 ± 0.98 µM.

`N#Cc1ccc(NCC2CCC3(COCCN(Cc4ccccc4OC(F)F)C3)O2)nc1` (stereo not shown) [Compound A8]: in the assay on WT P. aeruginosa [3], the phzH expression entry is given as “reduction only to the level displayed by the ΔpqsE mutant” and the phzS expression result is recorded as “reduced to the level in the ΔpqsE strain”. Moreover, in assay [1], the IC50 came out at 0.8 ± 0.2 µM and the “IC50 values in P. aeruginosa” value was “submicromolar”. Further, the midpoint of inhibition against PqsR, the IC50, lay at 1.9 ± 0.44 µM.

`O=C(CN1CCC(c2nc(-c3cccc(F)c3)no2)CC1)Nc1ccccc1` [Compound B15]: the IC50 in assay [1] was determined as 8.6 ± 0.19 µM; against PqsR, 7.04 ± 1.18 µM.

On to `O=C(Nc1nnc(C(F)(F)F)s1)C1CC(=O)N(CCc2c[nH]c3ccc(Cl)cc23)C1` (stereo not shown) [Compound B4], for which the IC50 in assay [1] amounted to 2.8 ± 0.1 µM; on PqsR, 0.59 ± 0.07 µM.

Consider `O=C(NCc1ccc(OC(F)F)cc1)c1ccc(C2SCCS2)cc1` [Compound D6], for which, in assay [1], the IC50 came to 0.53 ± 0.028 µM and the “IC50 values in P. aeruginosa” value was “submicromolar”. Half-maximal inhibition at PqsR (IC50) was put at 0.42 ± 0.045 µM.

In the case of `CC(C)C(C(=O)O)N1C(=O)C(=Cc2cccc(Br)c2)SC1=S` (stereo not shown) [Compound E6], in assay [1], the half-maximal inhibitory concentration (IC50) stood at 9.7 ± 0.49 µM.

Turning to `COc1cccc(-c2nc(CC(=O)Nc3ccc(F)cc3)no2)c1` [Compound C2], the values for the IC50 (in assay [1]; at PqsR) were 3.2 ± 0.08 µM and 0.83 ± 0.17 µM, respectively.

As for `O=C(c1csc2nc(-c3ccc(F)cc3)cn12)N1CCN(c2ccccc2F)CC1` [Compound E3], the IC50 in assay [1] came out at 5 ± 0.26 µM.

For the compound `O=S(=O)(c1ccc(-c2cc(C(F)(F)F)n[nH]2)s1)N1CC=C(c2ccccc2)CC1` [Compound B6], the IC50 in assay [1] was found to be 0.4 ± 0.03 µM; against PqsR, 0.55 ± 0.12 µM. Also, in assay [1], the “IC50 values in P. aeruginosa” value was “submicromolar”.

With `CC(C)Oc1ccc(N2CC(C(=O)Nc3cccc(Cl)c3Cl)CC2=O)cc1` (stereo not shown) [Compound B2], the IC50 was found to be 4.9 ± 0.26 µM in assay [1] and 4.7 ± 0.56 µM on PqsR.

Regarding `Cc1cc(Br)ccc1OCCn1cnc2ccccc2c1=O` [Compound D4], the IC50 came to 1.1 ± 0.028 µM in assay [1] and 1.23 ± 0.31 µM at PqsR.

For `O=C(Nc1ccc(Cl)c(Cl)c1)c1ccc(=O)n(Cc2cccc(F)c2)n1` [Compound E5], the IC50 in assay [1] turned out to be 2.3 ± 0.12 µM; at PqsR it was 2.87 ± 0.84 µM.

Consider `COc1ccc(Cl)cc1C(=O)NCC(O)C1CCCCC1` (stereo not shown) [Compound D3], for which the IC50 in assay [1] was found to be 8.2 ± 0.77 µM; on PqsR, 8.39 ± 0.075 µM.

With `Oc1cc(CN2CCC(CCn3cccn3)CC2)nc2ccc(F)cc12` [Compound C9], the IC50 in assay [1] amounted to 7.6 ± 0.25 µM; at PqsR, 0.21 ± 0.08 µM.

As for `O=C(Cn1nnc(-c2ccccc2)n1)Nc1ccc(Br)cc1` [Compound C6], the IC50 on PqsR stood at 0.37 ± 0.08 µM.

With `CCOC1CCN(C(=O)c2cccc(-c3ccc(OC(F)F)cc3)c2)CC1` [Compound C10], in assay [1], the IC50 came to 4.4 ± 0.16 µM.

As to `CC(=O)c1cc(-c2ccccc2)n(CC(=O)Nc2nc3ccc(C)cc3s2)c1C` [Compound B14], the figures for the IC50 (in assay [1]; at PqsR) were 11.4 ± 0.9 µM and 14.5 ± 3.39 µM, respectively.

As to `Cc1ccc(C(=O)NCc2nc(-c3ccc(Oc4ccccc4)cc3)no2)cc1` [Compound B9], at PqsR, the IC50 worked out at 2 ± 0.24 µM.

For the compound `N#Cc1cc(CN2CCC3(CC2)CC(Nc2ncccn2)C3)ccc1F` [Compound A7], the IC50 in assay [1] worked out at 2.2 ± 0.23 µM. The same compound came in with an IC50 on PqsR of 0.51 ± 0.16 µM. In the assay on WT P. aeruginosa [4], the “production of HHQ” value is recorded as “reduced to the level made by the P. aeruginosa ΔpqsR strain” and the “production of PQS” value was “reduced to the level made by the P. aeruginosa ΔpqsR strain”.

Regarding `Cc1nn(-c2ccccc2)c(-n2cccc2)c1C(=O)N1CCC(C(=O)NCCc2ccccc2)CC1` [Compound B3], the figures for the IC50 (in assay [1]; at PqsR) were 2 ± 0.28 µM and 5.2 ± 1.7 µM, respectively.

For `O=C(NC1CCN(Cc2cc(F)cc(F)c2)CC1)c1cc(C(F)(F)F)n[nH]1` [Compound C8], the IC50 in assay [1] was found to be 3.9 ± 0.38 µM; on PqsR, 0.27 ± 0.04 µM.
